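Each compound was tested at five concentrations against cells in 96-well plates for 48 hours. GI50 is the concentration that inhibits growth by half. TGI denotes the concentration required for complete inhibition of growth.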
Assays:
Assay in all cases: growth of human tumour cells (NCI), 48 h
[1] = test system: DU-145 prostate
[2] = test system: HL-60(TB) leukemia
[3] = test system: SK-MEL-5 melanoma
[4] = test system: A498 renal
[5] = test system: SN12C renal
[6] = test system: MALME-3M melanoma
[7] = test system: SK-MEL-28 melanoma
[8] = test system: M14 melanoma
[9] = test system: SNB-19 CNS
[10] = test system: CCRF-CEM leukemia
[11] = test system: HCC-2998 colon
[12] = test system: TK-10 renal
[13] = test system: NCI-H23 lung
[14] = test system: BT-549 breast
[15] = test system: MOLT-4 leukemia
[16] = test system: RPMI-8226 leukemia
[17] = test system: OVCAR-8 ovarian
[18] = test system: CAKI-1 renal
[19] = test system: LOX IMVI melanoma
[20] = test system: HCT-15 colon
[21] = test system: UO-31 renal
[22] = test system: OVCAR-5 ovarian
[23] = test system: UACC-62 melanoma
[24] = test system: HCT-116 colon
[25] = test system: EKVX NSCLC
[26] = test system: IGROV1 ovarian
[27] = test system: HOP-62 NSCLC
[28] = test system: MDA-MB-435
[29] = test system: SF-539 CNS

Q: How did the GI50 [1] turn out when Cc1ccc2c(n1)C(=O)C(Cl)=C(Nc1ccc(C(F)(F)F)cc1)C2=O was run?
A: 1.87 µM

Q: What about the TGI [1] of the same compound?
A: 3.41 µM

Q: And the GI50 [2]?
A: 1.4 µM

Q: And the TGI [2]?
A: 3.76 µM

Q: What about the GI50 [3] of the same compound?
A: 6.03 µM

Q: What about the TGI [3] of the same compound?
A: 21.2 µM

Q: What about the GI50 [4] of the same compound?
A: 40.2 µM

Q: And the TGI [4]?
A: > 100 µM

Q: What about the GI50 [5] of the same compound?
A: 2.31 µM

Q: What about the TGI [5] of the same compound?
A: 6.51 µM

Q: What about the GI50 [6] of the same compound?
A: 1.9 µM

Q: What about the TGI [6] of the same compound?
A: 3.78 µM

Q: What about the GI50 [7] of the same compound?
A: 2.06 µM

Q: What about the TGI [7] of the same compound?
A: 3.85 µM

Q: And the GI50 [8]?
A: 1.74 µM

Q: What about the TGI [8] of the same compound?
A: 3.36 µM

Q: And the GI50 [9]?
A: 11.6 µM

Q: What about the TGI [9] of the same compound?
A: > 100 µM

Q: What about the GI50 [10] of the same compound?
A: 0.879 µM

Q: What about the TGI [10] of the same compound?
A: 3.89 µM

Q: What about the GI50 [11] of the same compound?
A: 3.14 µM

Q: What about the TGI [11] of the same compound?
A: 9.98 µM

Q: And the GI50 [12]?
A: 2.28 µM

Q: And the TGI [12]?
A: 3.75 µM

Q: And the GI50 [13]?
A: 2.02 µM

Q: And the TGI [13]?
A: 5.58 µM

Q: What about the GI50 [14] of the same compound?
A: 1.78 µM

Q: What about the TGI [14] of the same compound?
A: 3.33 µM

Q: What about the GI50 [15] of the same compound?
A: 0.347 µM

Q: And the TGI [15]?
A: 2.99 µM

Q: And the GI50 [16]?
A: 2.23 µM

Q: What about the TGI [16] of the same compound?
A: 6.08 µM

Q: And the GI50 [17]?
A: 3.26 µM

Q: What about the TGI [17] of the same compound?
A: > 100 µM

Q: What about the GI50 [18] of the same compound?
A: 1.53 µM

Q: And the TGI [18]?
A: 3.01 µM

Q: What about the GI50 [19] of the same compound?
A: 1.22 µM

Q: What about the TGI [19] of the same compound?
A: 3.04 µM

Q: And the GI50 [20]?
A: 1.36 µM

Q: What about the TGI [20] of the same compound?
A: 3.13 µM

Q: What about the GI50 [21] of the same compound?
A: 1.37 µM

Q: What about the TGI [21] of the same compound?
A: 2.75 µM

Q: And the GI50 [22]?
A: 5.07 µM

Q: And the TGI [22]?
A: 19.8 µM

Q: What about the GI50 [23] of the same compound?
A: 2.74 µM

Q: And the TGI [23]?
A: 10.7 µM

Q: What about the GI50 [24] of the same compound?
A: 0.569 µM

Q: What about the TGI [24] of the same compound?
A: 2.02 µM

Q: And the GI50 [25]?
A: 1.68 µM

Q: What about the TGI [25] of the same compound?
A: 3.98 µM

Q: And the GI50 [26]?
A: 1.82 µM

Q: And the TGI [26]?
A: 4.04 µM

Q: What about the GI50 [27] of the same compound?
A: > 100 µM

Q: What about the TGI [27] of the same compound?
A: > 100 µM

Q: And the GI50 [28]?
A: 2.12 µM

Q: What about the TGI [28] of the same compound?
A: 4.49 µM

Q: And the GI50 [29]?
A: 1.92 µM

Q: And the TGI [29]?
A: 3.95 µM

From PubChem BioAssay (NCI)
